Where two headings read alike, the source gives them in different places.
What was measured:
Sm.TRPMPZQ [1] = target: T1, Sm.TRPMPZQ (Schistosoma mansoni, UniProt A0A5K4F0X5); experiment: cell-based; details: for Emax: HEK293
Procedure: HEK cells were transfected with cDNA (400μg/ml DNA) encoding Sm.TRPMPZQ using a Maxcyte STX electroporation system and incubated overnight at 37°C. This system is uniquely capabable of large scale transfections providing one batch of cells ready for large scale HTS [30]. Briefly, the HEK cells were resuspended at 10^8/ml in Maxcyte electroporation buffer. Plasmid DNA was added to the cells in buffer to achieve a concentration of 400 μg/ml from a stock of 5mg/ml (in TE buffer). This mixture was loaded into the appropriate cassette, inserted into the machine, and cells electroporated. Cells were then frozen to provide a single supply of transfected cells for all subsequent assays. On the day of the assays, cells were thawed in a 37°C waterbath, and resuspended in DMEM + 10% FBS and counted. The cells were pelleted by centrifugation at 170xg for 5 minutes. The media was aspirated, and the remaining pellet was resuspended in 1x HBSS with 20 mM HEPES and 1% DMSO to achieve 1.33x10^6cells/ml. […] A read of basal fluorescence values was made (5s) prior to addition of compounds or controls (30 nl). In both ‘agonist’ and ‘antagonist mode’, the total assay volume was 6μl (1% DMSO). […] Ligand performance was categorized using an algorithm based on the activity of the entire dataset to define a ‘hit-cutoff’ parameter for both agonist-mode and antagonist-mode screening. […] Titration assays were executed using the same reagents, protocols and detection systems, done as 10-point concentration-response curves, performed in triplicate. Counter-screening was performed using untransfected HEK293 cells for comparison with results testing the same compounds effect on cells expressing Sm.TRPMPZQ, with ATP used as the positive control. For each compound, activity was plotted against compound concentration and data were fitted with a sigmoidal function.

adult schistosome worms = experiment: Schistosome mobility assay ex vivo; format: cell-based, S. mansoni
Procedure: Adult schistosomes were harvested from the mesenteric vasculature of female Swiss Webster mice previously infected (~49 days earlier) with S. mansoni cercariae (NMRI strain) by the Schistosomiasis Resource Center at the Biomedical Research Institute (BRI, Rockville, MD). Harvested schistosomes were washed in RPMI 1640 supplemented with 5% heat inactivated FBS (Gibco), HEPES (25 mM) and penicillin-streptomycin (100 units/mL). After isolation, worms were incubated overnight (37°C/5% CO2) in vented petri dishes (100x25 mm). Movement assays were performed using male and female worms in six well dishes (~5 individual worms/3ml media per well). Video recordings of worm motility (4 frames/sec) were captured using a Zeiss Discovery v20 stereomicroscope coupled to a QiCAM 12-bit cooled color CCD camera controlled by Metamorph imaging software.

Sm.TRPMPZQ [2] = target: T1, Sm.TRPMPZQ; experiment: cell-based
Procedure: HEK cells were transfected with cDNA (400μg/ml DNA) encoding Sm.TRPMPZQ using a Maxcyte STX electroporation system and incubated overnight at 37°C. This system is uniquely capabable of large scale transfections providing one batch of cells ready for large scale HTS [30]. Briefly, the HEK cells were resuspended at 10^8/ml in Maxcyte electroporation buffer. Plasmid DNA was added to the cells in buffer to achieve a concentration of 400 μg/ml from a stock of 5mg/ml (in TE buffer). This mixture was loaded into the appropriate cassette, inserted into the machine, and cells electroporated. Cells were then frozen to provide a single supply of transfected cells for all subsequent assays. On the day of the assays, cells were thawed in a 37°C waterbath, and resuspended in DMEM + 10% FBS and counted. The cells were pelleted by centrifugation at 170xg for 5 minutes. The media was aspirated, and the remaining pellet was resuspended in 1x HBSS with 20 mM HEPES and 1% DMSO to achieve 1.33x10^6cells/ml. This cell suspension was then dispensed at 3 μl/well to the 1536 well plates (Greiner Bio One part 789072) at a density of 4,000 cells/well. Measurements of fluorescence intensity (λex = 470 nm, λem = 535 nm) were made using a FLIPR (Molecular Devices FLIPR Tetra). A read of basal fluorescence values was made (5s) prior to addition of compounds or controls (30 nl). In both ‘agonist’ and ‘antagonist mode’, the total assay volume was 6μl (1% DMSO). […] Ligand performance was categorized using an algorithm based on the activity of the entire dataset to define a ‘hit-cutoff’ parameter for both agonist-mode and antagonist-mode screening. […] Titration assays were executed using the same reagents, protocols and detection systems, done as 10-point concentration-response curves, performed in triplicate. Counter-screening was performed using untransfected HEK293 cells for comparison with results testing the same compounds effect on cells expressing Sm.TRPMPZQ, with ATP used as the positive control. For each compound, activity was plotted against compound concentration and data were fitted with a sigmoidal function. […] ChemAxon (https://www.chemaxon.com) academic licensing was provided for the use of Instant JChem (ver. 15.10.12.0) to perform compound mining of the libraries utilized in this effort.

schistosomes = test system: schistosomes; design: method as in PMID 27128493; details: read-out: IC50 in phenotypic assays; cited from earlier work
Sm.TRPMPZQ[R1514A] = experiment: Ca2+ signal in cells expressing the binding pocket mutant; format: cell-based, Schistosoma mansoni
Sm.TRPMPZQ [3] = target: T1, Sm.TRPMPZQ; details: confocal Ca2+ imaging; cited from earlier work
[4] = S2 Table, titration, listed as SR-01000003100-3
[5] = S2 Table, titration, listed as SR-01000003100-19

T1 sequence (A0A5K4F0X5 entry or part of it): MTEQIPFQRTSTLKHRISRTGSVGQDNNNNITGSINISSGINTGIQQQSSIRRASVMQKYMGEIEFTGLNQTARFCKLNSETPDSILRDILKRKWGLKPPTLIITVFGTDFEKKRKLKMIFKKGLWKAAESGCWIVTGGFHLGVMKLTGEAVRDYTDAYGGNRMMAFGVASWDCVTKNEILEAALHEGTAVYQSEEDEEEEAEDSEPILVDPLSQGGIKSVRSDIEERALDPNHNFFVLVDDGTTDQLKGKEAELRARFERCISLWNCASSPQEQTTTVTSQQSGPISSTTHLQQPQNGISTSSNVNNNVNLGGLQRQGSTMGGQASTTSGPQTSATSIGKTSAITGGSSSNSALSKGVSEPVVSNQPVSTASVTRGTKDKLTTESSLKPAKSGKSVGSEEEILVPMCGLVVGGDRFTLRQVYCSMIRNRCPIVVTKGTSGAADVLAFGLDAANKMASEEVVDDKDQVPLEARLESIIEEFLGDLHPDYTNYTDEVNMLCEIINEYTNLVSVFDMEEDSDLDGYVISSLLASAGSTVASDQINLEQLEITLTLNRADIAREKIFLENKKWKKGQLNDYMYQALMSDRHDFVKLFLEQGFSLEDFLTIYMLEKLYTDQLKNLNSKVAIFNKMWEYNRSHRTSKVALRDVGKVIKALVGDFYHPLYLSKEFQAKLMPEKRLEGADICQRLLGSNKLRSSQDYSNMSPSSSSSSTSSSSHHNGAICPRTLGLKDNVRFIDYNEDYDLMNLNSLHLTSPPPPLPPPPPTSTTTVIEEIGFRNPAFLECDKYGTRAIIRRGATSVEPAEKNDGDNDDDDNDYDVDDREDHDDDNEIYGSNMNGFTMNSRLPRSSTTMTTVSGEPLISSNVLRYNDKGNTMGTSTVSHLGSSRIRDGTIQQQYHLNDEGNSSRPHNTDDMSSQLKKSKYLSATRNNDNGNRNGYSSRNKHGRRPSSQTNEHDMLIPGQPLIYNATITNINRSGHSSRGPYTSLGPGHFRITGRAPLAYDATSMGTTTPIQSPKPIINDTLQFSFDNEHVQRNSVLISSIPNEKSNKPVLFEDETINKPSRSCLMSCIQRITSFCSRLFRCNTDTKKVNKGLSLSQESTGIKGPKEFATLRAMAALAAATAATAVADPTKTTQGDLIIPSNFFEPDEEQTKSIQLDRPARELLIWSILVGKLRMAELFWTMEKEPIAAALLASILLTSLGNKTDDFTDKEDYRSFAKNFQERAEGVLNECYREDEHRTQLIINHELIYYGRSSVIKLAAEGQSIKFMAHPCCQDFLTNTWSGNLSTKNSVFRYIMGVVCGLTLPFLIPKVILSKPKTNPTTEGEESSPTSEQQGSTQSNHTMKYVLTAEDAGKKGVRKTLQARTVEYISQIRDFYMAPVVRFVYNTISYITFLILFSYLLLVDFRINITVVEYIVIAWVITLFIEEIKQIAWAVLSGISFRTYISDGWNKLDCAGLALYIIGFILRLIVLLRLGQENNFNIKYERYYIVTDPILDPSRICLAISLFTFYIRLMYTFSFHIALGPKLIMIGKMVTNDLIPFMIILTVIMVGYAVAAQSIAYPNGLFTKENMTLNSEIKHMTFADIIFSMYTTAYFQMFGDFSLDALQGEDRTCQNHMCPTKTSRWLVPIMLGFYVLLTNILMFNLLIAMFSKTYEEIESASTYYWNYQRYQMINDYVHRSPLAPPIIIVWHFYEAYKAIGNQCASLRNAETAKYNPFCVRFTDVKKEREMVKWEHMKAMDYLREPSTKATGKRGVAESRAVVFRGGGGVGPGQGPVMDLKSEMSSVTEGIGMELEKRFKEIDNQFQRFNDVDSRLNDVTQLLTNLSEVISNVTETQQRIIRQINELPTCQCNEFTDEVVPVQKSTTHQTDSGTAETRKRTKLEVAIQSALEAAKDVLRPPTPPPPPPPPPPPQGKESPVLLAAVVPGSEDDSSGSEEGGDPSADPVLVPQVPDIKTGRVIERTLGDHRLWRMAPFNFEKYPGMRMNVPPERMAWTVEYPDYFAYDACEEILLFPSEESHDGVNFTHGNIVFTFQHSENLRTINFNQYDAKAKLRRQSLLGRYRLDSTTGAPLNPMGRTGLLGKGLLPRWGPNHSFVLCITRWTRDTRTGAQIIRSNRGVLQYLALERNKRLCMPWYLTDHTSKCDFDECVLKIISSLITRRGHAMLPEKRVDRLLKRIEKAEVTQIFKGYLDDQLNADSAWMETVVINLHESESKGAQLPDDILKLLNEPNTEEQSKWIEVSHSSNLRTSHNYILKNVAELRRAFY

## Cc1onc(-c2ccccc2)c1C(=O)N1CCN(C2c3ccccc3-c3ccccc32)CC1 [ANT1, 1-(9H-fluoren-9-yl)-4-(5-methyl-3-phenyl-1,2-oxazole-4-carbonyl)piperazine]
Sm.TRPMPZQ [1]; S3 Table, titration, read-out: Sm.TRPMPZQ ANT Averaged Max % Response
  Emax: 105%
Sm.TRPMPZQ [1]; read-out: IC50, block of PZQ-evoked Ca2+ signals
  IC50: 1300 ± 300 nM
Adult schistosome worms; 50μM, PZQ 250 nM, 24 hours, compared to PZQ alone
  recovery of worms in continued presence of PZQ: enhanced recovery
Adult schistosome worms; applied alone to intact worms
  effect on worm motility: did not change worm motility
Sm.TRPMPZQ [2]; HEK293, S3 Table, titration, read-out: Sm.TRPMPZQ AG Averaged Max % Response
  Emax: 11.6%
Sm.TRPMPZQ [2]; S3 Table, 10-point titration in triplicate, unit inferred, read-out: Sm.TRPMPZQ AG Final EC50
  EC50: > 12400 nM

## COc1ccc(-c2nnc3ccc(-c4cccc(C(C)C)c4)cn23)cc1OC [AG1, 3-(3,4-Dimethoxyphenyl)-6-(3-propan-2-ylphenyl)-[1,2,4]triazolo[4,3-a]pyridine]
Sm.TRPMPZQ [1]; S2 Table, antagonist mode titration, read-out: Sm.TRPMPZQ Averaged Max % Response
  Emax: 109%
Sm.TRPMPZQ [1]; S2 Table, 10-point titration in triplicate, unit inferred, read-out: Sm.TRPMPZQ ANT Final EC50
  EC50: 571 nM
Sm.TRPMPZQ [1]; S2 Table, titration
  Sm.TRPMPZQ ANT Hill Slope: 2.322
schistosomes
  IC50: ~1600 nM
Sm.TRPMPZQ[R1514A]
  Ca2+ elevation at binding site mutant: ablated AG1 activity
Adult schistosome worms; agonist alone
  effect on adult worms ex vivo: evoked a sustained contraction
Sm.TRPMPZQ [2]; HEK293, S2 Table, titration, read-out: Sm.TRPMPZQ AG Averaged Max % Response
  Emax: 97.5%
Sm.TRPMPZQ [2]; HEK293, read-out: Bmax, activation in primary screen
  activation at 5 µM: 93.9 ± 5.6%
Sm.TRPMPZQ [2]; S2 Table, 10-point titration in triplicate, unit inferred, read-out: Sm.TRPMPZQ AG Final EC50
  EC50: 1560 nM
Sm.TRPMPZQ [2]; S2 Table, titration
  Sm.TRPMPZQ AG Hill Slope: 1.659
Sm.TRPMPZQ [2]; concentration-response curve analysis
  agonist efficacy: full agonist
Sm.TRPMPZQ [2]; concentration-response of library sample, Ca2+ flux, read-out: EC50
  EC50: 1600 ± 300 nM
Sm.TRPMPZQ [2]; re-sourced, independently procured sample, read-out: EC50
  EC50: 9200 nM

## O=C(C1CCCCC1)N1CC(=O)N2CCc3ccccc3C2C1 (centres unmarked) [PZQ, praziquantel, reference compound]
Sm.TRPMPZQ [1]; [4]
  Sm.TRPMPZQ ANT Hill Slope: 1.74
Sm.TRPMPZQ[R1514A]
  Ca2+ elevation at binding site mutant: did not elevate Ca^2+
Sm.TRPMPZQ [2]; HEK293, read-out: Sm.TRPMPZQ AG Averaged Max % Response, S2 Table, titration
  Emax: 80.3%
Sm.TRPMPZQ [2]; [4]
  Sm.TRPMPZQ AG Hill Slope: 1.753
Sm.TRPMPZQ [2]; [5]
  Sm.TRPMPZQ AG Averaged Max % Response: 90.5499%
  Sm.TRPMPZQ AG Hill Slope: 1.657
Sm.TRPMPZQ [3]
  ΔF/F, amplitude of Ca2+ transient: 12.3±2.1

— publication PMC8565742 (PLoS Neglected Tropical Diseases, 2021)
